Laboratory results as given in patent US20040253665A1, “Novel peptide-producing enzyme, microbe producing the enzyme and method for dipeptide synthesis using them” (AJINOMOTO CO., INC., priority 2002, published 2004).
Where two headings read alike, the source gives them in different places. Non-standard residues stand in square brackets, D forms with d. Residues, ends and D or L forms follow the SMILES beside them. *: point of attachment. tBu = CC(C)(C)*

Columns and labels:
Type in all cases: biochemical
[1] = test system: peptide-producing enzyme (Mono S fraction) from Empedobacter brevis strain FERM BP-8113; assay: Enzyme substrate specificity (1)-(10), (13), (14); design: key: +: those peptides for which production was confirmed but which were unable to be quantified due to the absence of a standard; a trace amount
From the text: (§1) Ester specificity was examined in the case of using L-amino acid ester for the carboxy component. […] The amounts of L-Ala-L-Gln produced in this reaction are shown in Table 4 (HCl represents hydrochloride in Table 4). Peptide production was examined in the case of using L-alanine methyl ester for the carboxy component and using various L-amino acids for the amine component. […] (The “+” mark indicates those peptides for which production was confirmed but which were unable to be quantified due to the absence of a standard, while “tr” indicates a trace amount.) Peptide production was examined in the case of using various types of L-amino acid methyl esters for the carboxy component and using L-glutamine for the amine component. […] Peptide production was examined in the case of using various L-amino acid methyl esters for the carboxy component and various L-amino acids for the amine component. […] (The “tr” indicates a trace amount.) Furthermore, Tween-80 was added to the reaction system to a final concentration of 0.1% in the case of using L-Trp-OMe. (The “+” mark indicates those peptides for which production was confirmed but which were unable to be quantified due to the absence of a standard.) […] (The “tr” indicates a trace amount.) Peptide production was examined using various L-amino acid amides for the carboxy component, and various L-amino acids for the amine component. […] Peptide production was examined in the case of using various L-alanine methyl esters for the carboxy component and C-protected L-amino acids for the amine component. […] Peptide production was examined in the case of using various amino acid methyl esters for the carboxy component and methylamine for the amine component. […] Peptide production was examined in the case of using β-amino acid ester for the carboxy component or β-amino acid for the amine component. […] (The “tr” indicates a trace amount.) Oligopeptide production was examined in the case of using L-amino acid ester for the carboxy component and peptide for the amine component. […] Substrate specificity was additionally assessed using the same enzyme fraction as that used in Example 5. […] (A “+” mark indicates those for which production was confirmed but which were unable to be quantified due to the absence of a standard, while “tr” indicates a trace amount). Substrate specificity with respect to oligopeptide production was assessed using the same enzyme fraction as Example 26. […] (A “+” mark indicates those for which production was confirmed but which were unable to be quantified due to the absence of a standard, while “tr” indicates a trace amount). It should be noted that hydrochlorides were used for all of the carboxy components.

[2] = test system: peptide-producing enzyme (Mono S fraction) from Empedobacter brevis strain FERM BP-8113; assay: Enzyme substrate specificity (1)-(10), (13), (14); details: pH 9.0, 25° C., 3 hours
From the text: as §1

[3] = test system: enzyme (SP-Sepharose HP fraction) derived from Sphingobacterium sp. strain FERM BP-8124; details: 0.33 units enzyme, pH 9.0, 25° C., 1.5 hours
Experimental: Substrate specificity was examined for enzyme derived from Sphingobacterium sp. strain FERM BP-8124 (Depositary institution: National Institute for Advanced Industrial Science and Technology, International Patent Organism Depositary, Address of depositary institution: Central. 6, 1-1-1 Higashi, Tsukuba City, Ibaraki Prefecture, Japan, International deposit date: Jul. 22, 2002). 100 μl of 100 mM borate buffer (pH 9.0) containing the various carboxy components at a final concentration of 100 mM and the various amine components at a final concentration of 150 mM shown in Tables 15-1 to 15-4, the SP-Sepharose HP fraction enzyme purified in Example 22 (addition of 0.33 units in the reaction liquid) and 10 mM EDTA were allowed to react at 25° C. for 1.5 hours. […] In addition, hydrochlorides were used for all carboxy components.
Substrate specificity with respect to oligopeptide production was examined for enzyme derived from Sphingobacterium sp. strain FERM BP-8124 (Depositary institution: National Institute for Advanced Industrial Science and Technology,.International Patent Organism Depositary, Address of depositary institution: Chuo Dai-6, 1-1 Higashi 1-Chome, Tsukuba-shi, Ibaraki-ken, Japan, International deposit date: Jul. 22, 2002). A 100 μl aliquot of 100 mM borate buffer (pH 9.0) containing the various carboxy components at a final concentration of 100 mM and the various amine components at a final concentration of 150 mM shown in Table 16, the SP-Sepharose HP fraction enzyme purified in Example 22 (addition of 0.33 units in the reaction liquid) and 10 mM EDTA were allowed to react for 1.5 hours at 25° C. Furthermore, hydrochloride salts were used for all carboxy components.

[4] = L-amino acid methyl ester hydrochloride 100 mM, 150 mM L-glutamine, pH 9.0, 25° C., 3 hours
[5] = L-amino acid methyl ester hydrochloride 100 mM, L-amino acid 150 mM
[6] = Table 15-3, carboxy component 100 mM, amine component 150 mM
[7] = L-amino acid methyl ester hydrochloride 100 mM, 150 mM L-glutamine
[8] = Table 15-2, carboxy component 100 mM, L-Gln 150 mM
[9] = L-Ala-OMe 100 mM, L-amino acid amide 150 mM as amine component
[10] = Table 15-4, amides or methylamine as components, 100 mM / 150 mM
[11] = 100 mM L-alanine methyl ester hydrochloride, L-amino acid 150 mM
[12] = Table 15-1, carboxy component 100 mM, amine component 150 mM
[13] = L-amino acid ester 100 mM, amino acid or peptide amine component 150 mM
[14] = Table 16, oligopeptide production, carboxy component 100 mM, amine component 150 mM

NC(=O)CC[C@H](NC(=O)[C@@H](N)Cc1cnc[nH]1)C(=O)O [L-His-L-Gln] (H-His-Gln-OH)
Produced peptide (mM) [1, 4]: +

CN[C@@H](C)C(=O)N[C@@H](Cc1ccccc1)C(=O)O [H-N-Me-Ala-Phe-OH]
Produced peptide (mM) ([1]; carboxy component 100 mM, amine component 150 mM, 0.1 unit enzyme, 25° C., reaction time 3 hr): tr

NC(=O)CC[C@H](NC(=O)[C@@H](N)CCC(=O)O)C(=O)O [α-L-Glu-L-Gln] (H-Glu-Gln-OH)
Produced peptide (mM) [1, 4]: +

C[C@@H](N)C(=O)N[C@H](CCC(N)=O)C(=O)O [D-Ala-D-Gln] (H-[dA]-[dQ]-OH)
Produced peptide (mM) ([1]; L or D amino acid methyl ester hydrochloride 100 mM, L or D amino acid 150 mM, pH 9.0, 25° C., 3 hours): tr

NC(=O)CC[C@H](NC(=O)CC[C@H](N)C(=O)O)C(=O)O [γ-L-Glu-L-Gln]
Produced peptide (mM) [1, 4]: +

CC(C)(C)OC[C@H](N)C(=O)N[C@@H](CCC(N)=O)C(=O)O [H-Ser(tBu)-Gln-OH] (H-Ser(tBu)-Gln-OH)
Produced peptide (mM) ([1]; carboxy component 100 mM, amine component 150 mM, 0.1 unit enzyme, 25° C., reaction time 2 hr): tr

NC(=O)CC[C@H](NC(=O)[C@@H](N)CC(N)=O)C(=O)O [L-Asn-L-Gln] (H-Asn-Gln-OH)
Produced peptide (mM) [1, 4]: +

NCC(=O)N[C@@H](Cc1ccccc1)C(=O)O [Gly-L-Phe] (H-Gly-Phe-OH)
Produced peptide [2, 5]: 44.0 mM
Produced peptide ([2]; oligopeptide production, amount of enzyme 0.1 units): 17.3 mM
Produced peptide [3, 6]: 20.0 mM

NC(=O)CC[C@H](NC(=O)[C@@H](N)CCCN=C(N)N)C(=O)O [L-Arg-L-Gln] (H-Arg-Gln-OH)
Produced peptide [2, 7]: 7.1 mM
Produced peptide [3, 8]: 17.2 mM

C[C@H](N)C(=O)N[C@@H](C)C(N)=O [L-Ala-L-Ala-NH2] (H-Ala-Ala-NH2)
Produced peptide [2, 9]: 8.3 mM
Produced peptide [3, 10]: 9.2 mM

C[C@H](N)C(=O)N[C@H](C(=O)O)[C@@H](C)O [L-Ala-L-Thr] (H-Ala-Thr-OH)
Produced peptide [2, 11]: 53.9 mM
Produced peptide [3, 12]: 47.3 mM

C[C@@H](O)[C@H](N)C(=O)NCC(=O)O [L-Thr-Gly] (H-Thr-Gly-OH)
Produced peptide [2, 5]: 9.4 mM
Produced peptide [3, 6]: 0.4 mM

C[C@H](N)C(=O)NCC(=O)O [L-Ala-Gly] (H-Ala-Gly-OH)
Produced peptide [2, 11]: 13.7 mM
Produced peptide [3, 12]: 11.1 mM

CC[C@H](C)[C@H](N)C(=O)N[C@@H](CCC(N)=O)C(=O)O [L-Ile-L-Gln] (H-Ile-Gln-OH)
Produced peptide [2, 7]: 8.4 mM
Produced peptide [3, 8]: 6.4 mM

L-Ala-Gly-Gly
Produced peptide [2, 13]: 41.7 mM
Produced peptide [3, 14]: 33.7 mM

CC(C)[C@H](NC(=O)[C@@H](N)[C@@H](C)O)C(=O)O [L-Thr-L-Val] (H-Thr-Val-OH)
Produced peptide [2, 5]: 0.7 mM
Produced peptide [3, 6]: 1.3 mM

CC(C)[C@H](NC(=O)[C@H](C)N)C(=O)O [L-Ala-L-Val] (H-Ala-Val-OH)
Produced peptide [2, 11]: 20.8 mM
Produced peptide [3, 12]: 10.9 mM

L-Thr-Gly-Gly
Produced peptide [2, 13]: 83.0 mM
Produced peptide [3, 14]: 8.4 mM

C[C@H](N)C(=O)N[C@H](CO)C(=O)O [L-Ala-D-Ser] (H-Ala-[dS]-OH)
Produced peptide ([2]; L or D amino acid methyl ester hydrochloride 100 mM, L or D amino acid 150 mM): 5.4 mM
Produced peptide [3, 12]: 3.3 mM

L-Ala-L-Ala-L-Ala
Produced peptide [2, 13]: 57.5 mM
Produced peptide [3, 14]: 41.1 mM

NCCCC[C@H](NC(=O)CN)C(=O)O [Gly-L-Lys] (H-Gly-Lys-OH)
Produced peptide [2, 5]: 9.8 mM
Produced peptide [3, 6]: 48.2 mM

CSCC[C@H](N)C(=O)N[C@@H](CO)C(=O)O [L-Met-L-Ser] (H-Met-Ser-OH)
Produced peptide [2, 5]: 12.8 mM
Produced peptide [3, 6]: 25.3 mM

NC(=O)CC[C@H](NC(=O)[C@@H](N)Cc1ccc(O)cc1)C(=O)O [L-Tyr-L-Gln] (H-Tyr-Gln-OH)
Produced peptide [2, 7]: 3.4 mM
Produced peptide [3, 8]: 0.6 mM

C[C@H](NC(=O)[C@@H](N)[C@@H](C)O)C(=O)O [L-Thr-L-Ala] (H-Thr-Ala-OH)
Produced peptide [2, 5]: 9.4 mM
Produced peptide [3, 6]: 5.8 mM

C[C@H](N)C(=O)N[C@@H](CC(=O)O)C(=O)O [L-Ala-L-Asp] (H-Ala-Asp-OH)
Produced peptide [2, 11]: 2.1 mM
Produced peptide [3, 12]: 2.3 mM

CC[C@H](C)[C@H](NC(=O)[C@H](C)N)C(=O)O [L-Ala-L-Ile] (H-Ala-Ile-OH)
Produced peptide [2, 11]: 33.9 mM
Produced peptide [3, 12]: 24.7 mM

CC(C)[C@H](N)C(=O)N[C@@H](CO)C(=O)O [L-Val-L-Ser] (H-Val-Ser-OH)
Produced peptide [2, 5]: 30.8 mM
Produced peptide [3, 6]: 31.9 mM

Gly-L-Ala-L-Tyr
Produced peptide [2, 13]: 1.7 mM
Produced peptide [3, 14]: 0.6 mM

C[C@H](N)C(=O)N[C@@H](Cc1ccccc1)C(N)=O [L-Ala-L-Phe-NH2]
Produced peptide [2, 9]: 12.2 mM
Produced peptide [3, 10]: 27.1 mM

CC[C@H](C)[C@H](N)C(=O)N[C@@H](CO)C(=O)O [L-Ile-L-Ser] (H-Ile-Ser-OH)
Produced peptide [2, 5]: 17.2 mM
Produced peptide [3, 6]: 17.3 mM

NC(=O)CC[C@H](NC(=O)[C@@H]1CCCN1)C(=O)O [L-Pro-L-Gln] (H-Pro-Gln-OH)
Produced peptide [2, 7]: 2.2 mM
Produced peptide [3, 8]: 1.8 mM

C[C@H](N)C(=O)N[C@@H](CCCCN)C(=O)O [L-Ala-L-Lys] (H-Ala-Lys-OH)
Produced peptide [2, 11]: 71.8 mM
Produced peptide [3, 12]: 71.2 mM

L-Ala-L-His-L-Ala
Produced peptide [2, 13]: 55.9 mM
Produced peptide [3, 14]: 58.0 mM

NC(N)=NCCC[C@H](N)C(=O)N[C@@H](CO)C(=O)O [L-Arg-L-Ser] (H-Arg-Ser-OH)
Produced peptide [2, 5]: 3.6 mM
Produced peptide [3, 6]: 2.2 mM
